Source: patent US6262065A (priority 1998, dated 2001)

Legend:
[1] = biological target: T1, α-mannosidase (jack bean) (Canavalia ensiformis, UniProt C0HJB3); experiment: inhibition of α-mannosidase (jack bean), colorimetric release of p-nitrophenol from p-nitrophenyl α-D-mannopyranoside; type: biochemical; conditions: initial screening
T1 construct: purchased Sigma Chemical Co
T1 sequence (C0HJB3 1-562 limits assumed): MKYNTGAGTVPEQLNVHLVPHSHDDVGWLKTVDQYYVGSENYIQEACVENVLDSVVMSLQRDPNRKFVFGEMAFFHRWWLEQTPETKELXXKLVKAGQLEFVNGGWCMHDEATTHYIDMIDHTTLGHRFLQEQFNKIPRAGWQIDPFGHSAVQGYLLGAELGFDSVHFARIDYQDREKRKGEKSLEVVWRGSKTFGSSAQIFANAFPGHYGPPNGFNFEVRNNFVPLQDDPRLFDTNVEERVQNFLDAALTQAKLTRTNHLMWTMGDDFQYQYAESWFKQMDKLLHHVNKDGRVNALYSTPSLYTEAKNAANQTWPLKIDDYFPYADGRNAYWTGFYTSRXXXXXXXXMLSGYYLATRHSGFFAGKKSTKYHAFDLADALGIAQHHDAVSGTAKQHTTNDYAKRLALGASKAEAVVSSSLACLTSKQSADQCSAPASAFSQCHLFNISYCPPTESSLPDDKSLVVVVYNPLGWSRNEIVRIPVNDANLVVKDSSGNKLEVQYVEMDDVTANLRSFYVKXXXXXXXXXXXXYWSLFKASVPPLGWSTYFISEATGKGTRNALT
T1 sequence (C0HJB3 563-981 limits assumed): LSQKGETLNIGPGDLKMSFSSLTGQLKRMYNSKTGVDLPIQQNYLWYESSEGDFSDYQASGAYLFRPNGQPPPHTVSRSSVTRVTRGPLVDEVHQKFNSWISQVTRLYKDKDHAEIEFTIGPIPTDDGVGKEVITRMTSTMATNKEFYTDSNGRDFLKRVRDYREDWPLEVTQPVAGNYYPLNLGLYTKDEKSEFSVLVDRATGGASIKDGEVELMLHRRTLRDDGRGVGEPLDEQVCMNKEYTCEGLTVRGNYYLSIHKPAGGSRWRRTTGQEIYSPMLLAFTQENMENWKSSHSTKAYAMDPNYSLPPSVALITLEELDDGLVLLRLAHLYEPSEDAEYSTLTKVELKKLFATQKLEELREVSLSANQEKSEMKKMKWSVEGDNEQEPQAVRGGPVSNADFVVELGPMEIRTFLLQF
Experimental: The enzyme α-mannosidase (from jack bean) and the corresponding p-nitrophenyl α-D-mannopyranoside substrate was obtained from Sigma Chemical Co. Enzyme inhibition was assayed colorimetrically by monitoring the release of p-nitrophenol from p-nitrophenyl α-D-mannopyranoside according to the procedure described by Tropea, et. al. (Tropea, J. E., et al, Biochemistry, Vol. 28, pp. 2027-2034 (1989)).

glucosidase I = conditions: cited from earlier work
amyloglucosidase = conditions: cited from earlier work
HIV = conditions: cited from earlier work
[2] = system: mannosidases including the glycoprotein processing enzyme mannosidase II; conditions: many mannosidases including mannosidase II; cited from earlier work

Row | SMILES | IC50 [1] [µM] | inhibition of glucosidase I (glucosidase I) | inhibition of amyloglucosidase (amyloglucosidase) | also measured
1 | OC[C@@H]1[C@@H](O)[C@@H](O)[C@H]2[C@H](O)CCCN21 [(VII), (1S,2R,3R,8R,8aR)-3-(Hydroxymethyl)-1,2,8-trihydroxyindolizidine] | 1.2 | – | – | –
2 | OC[C@H]1[C@@H](O)[C@@H](O)[C@H]2[C@H](O)CCCN21 [(VIII), (1S,2R,3S,8R,8aR)-3-(Hydroxymethyl)-1,2,8-trihydroxyindolizidine] | 45 | – | – | –
3 | OCC1C(O)C(O)C2C(O)CCN12 (stereo not shown) [compound 1] | – | good inhibitors | good inhibitors | –
4 | OCC1C(O)C(O)C2C(O)CCN12 (stereo not shown) [compound 3] | – | good inhibitors | good inhibitors | –
5 | OCC1C(O)C(O)C2C(O)CCN12 (stereo not shown) [compound 4] | – | good inhibitors | good inhibitors | anti-HIV activity (HIV): shows anti-HIV activity
6 | O[C@H]1[C@H]2[C@H](O)CCCN2C[C@H]1O [swainsonine, (-)-swainsonine] | – | – | – | inhibition of mannosidases [2]: potent inhibitor
